From article PMC5815658 (Journal of Medicinal Chemistry, 2017)
pIC50, pKd, pKi: −log10 of the molar value. Values after ≈ are worked out from the molar mass of the structure shown. “Also recorded” adds a separate entry of the source. Where two headings read alike, the source gives them in different places. Peptide text beside a SMILES is read from it. * marks the point of attachment. Cbz = O=C(OCc1ccccc1)*

Experiments:
[1] = Kinetic solubility determination by RP-HPLC; conditions: PBS, pH 7.4, aqueous buffer, kinetic from dmso stock
[2] = target: T1, pirin protein in SK-OV-3 human ovarian cancer cells (Homo sapiens, UniProt O00625); experiment: Pirin depletion in SK-OV-3 cells (immunoblot / capillary electrophoresis immunoassay); format: cell-based
T1 construct: endogenous in cells; host or cells: SK-OV-3
T1 sequence (O00625 1-290): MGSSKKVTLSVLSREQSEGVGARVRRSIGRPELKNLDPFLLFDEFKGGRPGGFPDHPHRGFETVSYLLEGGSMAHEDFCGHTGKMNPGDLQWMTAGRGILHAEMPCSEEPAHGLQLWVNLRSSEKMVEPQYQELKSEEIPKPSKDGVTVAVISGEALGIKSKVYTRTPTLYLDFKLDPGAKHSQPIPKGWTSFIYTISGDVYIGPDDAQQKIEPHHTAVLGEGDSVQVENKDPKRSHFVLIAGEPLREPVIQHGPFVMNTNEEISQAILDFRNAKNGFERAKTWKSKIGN
Procedure: (§1) in vivo in athymic mice to increase its tumorigenicity and reliability as a xenograft, and used within 10 passages of banked stocks.
(§2) Prior to use, the cells were analyzed by short tandem repeat (STR) profiling. Polymorphic STR loci were amplified using a polymerase chain reaction (PCR) primer set. The PCR product (each locus being labelled with a different fluorophore) was analyzed simultaneously with size standards using automated fluorescent detection. The number of repeats at 10 different loci (as recommended by the American Type Culture Collection, ATCC) was used to define the STR profile and this was cross-referenced with online databases to confirm authenticity. […]
(§3) the ATCC reference line (LGC Promochem, UK). […]
(§4) nested PCR protocol (Venor GeM kit, Minerva Biolabs, Germany). Cells were grown in DMEM/10 % FCS, 2 mM glutamine and nonessential amino acids in 5 % CO2.
(§5) SK-OV-3 cells were treated as for each experimental condition. Cells were harvested and lysed by scraping in urea lysis buffer (20 mM HEPES pH 8.0, 9 M urea, 1 mM sodium orthovanadate, 2.5 mM sodium pyrophosphate, 1 mM β-glycerophosphate). […]
(§6) of samples was determined using a bicinchoninic acid (BCA) protein assay kit (Thermo Fisher Scientific). Western blotting was carried out as previously described.10 Pirin and GAPDH antibodies were obtained from Abcam (ab157212) and Merck […]
(§7) Samples were treated, harvested and lysed as described above. A total of 5 μL of 0.2 mg/mL protein was loaded into plates and capillary western analysis was carried out according to the manufacturer’s instructions (ProteinSimple WES). The data was analyzed with the Compass software (ProteinSimple).
(§8) Sigma-Aldrich and Cell Signaling Technology, respectively.
(§9) 10 Sharp SY, Boxall K, Rowlands M, Prodromou C, Roe SM, Maloney A, Powers M, Clarke PA, Box G, Sanderson S, Patterson L, Matthews TP, Cheung KM, Ball K, Hayes A, Raynaud F, Marais R, Pearl L, Eccles S, Aherne W, McDonald E, Workman P. In vitro biological characterization of a novel, synthetic diaryl pyrazole resorcinol class of heat shock protein 90 inhibitors.

[3] = LogD7.4 determination by RP-HPLC; conditions: pH 7.4
pirin [4] = target: T2, pirin (Homo sapiens, UniProt O00625); experiment: Pirin SPR (surface plasmon resonance) binding; conditions: for Measured Rmax/Theoretical Rmax: SPR
T2 sequence (O00625 1-290): T1 sequence (O00625 1-290)

[5] = PDP aqueous stability protocol; conditions: for half-life at 100 µM: phosphate buffer (PBS)
CRBN-DDB1 complex = target: T3, CRBN-DDB1 complex (Homo sapiens, UniProt Q96SW2); experiment: CRBN/DDB1 fluorescence polarization competition assay; format: binding; conditions: for pKi: calculated from geometric mean CRBN-DDB1 IC50 and FP-probe KD
T3 construct: His6-ZZ-HRV3C (N); made in house; host or cells: Sf9 insect cells (baculovirus co-infection)
Procedure: CRBN/DDB1 Fluorescence Polarization Assay […]
Unless otherwise stated, the aqueous assay buffer contained 0.02 M HEPES((4-(2-hydroxyethyl)-1-piperazineethanesulfonic acid)) pH 8.0, 0.15 M NaCl, 0.5 mM TCEP ((tris(2-carboxyethyl)phosphine)), 0.05% Tween 20. The assay was conducted using 384 well black plates (ProxiPlate F Plus, Perkin-Elmer, Massachusetts, USA).
Plate Reader. […] Fluorescence […]
polarization was measured in units of millipolarization (mP) and are background corrected. Data were plotted and analyzed using […]
All experiments were performed in triplicate unless otherwise stated. Values are quoted as the geometric […]
Each graph is a representative example of a single biological repeat unless otherwise stated.
CRBN/DDB1 Protein Expression & Purification
Protein expression and purification methods adapted from Lopez-Girona et al.5 Full length human CRBN (accession number NM016302) was amplified by PCR & inserted downstream of the polyhedrin promoter of a pFBDM expression vector which had been modified to introduce a N-terminal His6-ZZ-HRV3C tag. Full length human DDB1 (accession number NM001923) was amplified by PCR with primers which introduced a C-terminal StrepTag and inserted downstream of the p10 promoter of a separate pFBDM expression vector. Baculoviruses were generated according to Bac-to-Bac protocols (Invitrogen) and used to co-infect Sf9 cells grown @ 27 °C in shaker flasks using Insect-XPRESS media (Lonza). Cells were harvested 48 hours post infection and frozen. For purification, pellets were thawed & resuspended in 5 volumes of Histrap buffer A (see below) and lysed […]
Superdex 200 (HiLoad 26/600), ResourceQ (6 mL) and finally a second Superdex 200 (HiLoad 26/600) column. All columns were from GE Healthcare and all purification steps were performed @ 4 °C. HisTrap buffer A: 50mM Tris (2-Amino-2-(hydroxymethyl)propane-1,3-diol), 500mM NaCl, 0.5mM TCEP ((tris(2-carboxyethyl)phosphine), 5% glycerol, pH 8.0. HisTrap Buffer B: + 250 mM imidazole. Superdex 200 buffer: 50mM Tris, 200mM NaCl, 0.5mM TCEP, 5% glycerol, pH 8.0. Resource Q buffer A: 50mM Tris, 0.5mM TCEP, 5% Glycerol, pH8.0. Resource Q buffer B + 1M NaCl.
California, USA) to prepare CRBN/DDB1 concentrations from 0.1 to 500 nM in 10 µL final assay volume containing 5 nM FP- […]
point prior to analysis. The KD was calculated using non-linear regression and a one-site specific binding model.
Analysis of competition assay FP-probe bound fraction […]
fb=probe bound fraction, KD=probe dissociation constant, L0=probe concentration, R0=protein concentration, Ki=ligand […]
CRBN/DDB1 Competition Assay
Compounds as solutions in DMSO were dispensed using an ECHO 550 Liquid Handler (Labcyte Inc).
Tracer controls (5 nM FP-probe S18 assay buffer only) and bound tracer controls (5 nM and 80 nM CRBN/DDB1) were included on each assay plate . Plates were incubated overnight at 4 °C before warming to room temperature and fluorescence polarization measured using an EnVision plate reader (Perkin -Elmer, Massachusetts, USA). IC 50 values […]
Table S2. CRBN/DDB1 Control Compounds

pirin [6] = target: T2, pirin; experiment: Intracellular competition: rescue of PDP 16 pirin depletion by pirin ligands in SK-OV-3 cells; format: cell-based; parameters: endogenous in cells; host or cells: SK-OV-3
Procedure: as §1, §2, §3, §4, §5, §6, §7, §8, §9

proteasome = experiment: Rescue of PDP 16 pirin depletion by proteasome inhibitor in SK-OV-3 cells; format: cell-based, human; conditions: 500 nM, 4 h pretreatment, then PDP 16 24 h
Procedure: as §1, §2, §3, §4, §5
of samples was determined using a bicinchoninic acid (BCA) protein assay kit (Thermo Fisher Scientific). […]
Samples were treated, harvested and lysed as described above. […] The data was analyzed with the Compass software (ProteinSimple). […]

[7] = Pirin SPR KD, equilibrium analysis, one site specific binding model, geometric mean n = 3
[8] = Pirin SPR KD, representative single repeat, best-fit value, one site specific binding
[9] = Pirin SPR pKD, mean of 3 values (unrounded), column statistics
[10] = Pirin SPR pKD±SEM, n = 3 independent biological repeats
[11] = CRBN/DDB1 FP IC50, single repeat N=2, best-fit value, variable slope four parameters
[12] = best-fit value, variable slope four parameters, read-out: CRBN/DDB1 FP IC50, single repeat N=1
[13] = best-fit value, variable slope four parameters, read-out: CRBN/DDB1 FP IC50, single repeat N=3
[14] = displacement of thalidomide derived fluorescent probe, geometric mean n = 3, read-out: CRBN/DDB1 FP IC50
[15] = 4 h pretreatment, then PDP 16 for 2 h, SK-OV-3, Figure 4

Compound | solubility kinetic at 120 min [1] | chromatographic logD [3] | pKd (pirin [4]; [7]) | pKd (pirin [4]; [8]) | pKd (pirin [4]; [9]) | pKd (pirin [4]; [10]) | Measured Rmax/Theoretical Rmax (pirin [4]) | pIC50 (CRBN-DDB1 complex; [11]) | pIC50 (CRBN-DDB1 complex; [12]) | pIC50 (CRBN-DDB1 complex; [13]) | pKi (CRBN-DDB1 complex) | pIC50 (CRBN-DDB1 complex; [14]) | also measured
Cc1ccc(NC(=O)c2ccc3c(c2)OCCO3)cc1NC(=O)c1ccc2nc(OCCCC(=O)NCCOCCNC(=O)COc3cccc4c3C(=O)N(C3CCC(=O)NC3=O)C4=O)ccc2c1 (centres unmarked) [PDP 3, N-(5-(2,3-Dihydrobenzo[b][1,4]dioxine-6-carboxamido)-2-methylphenyl)-2-(4-((2-(2-(2-((2-(2,6-dioxopiperidin-3-yl)-1,3-dioxoisoindolin-4-yl)oxy)acetamido)ethoxy)ethyl)amino)-4-oxobutoxy)quinoline-6-carboxamide] | 1 µM (≈ 0.942 µg/mL) | 2.2 | 6.96 | 6.95 | 6.97 | 6.97 | 0.44 | 6.30 | 5.82 | 6.09 | 6.66 | 6.07 | Effects on SK-OV-3 cells ([2]; >1 μM, >48 h, data not shown): no measurable effects on the cancer cells; half-life at 100 µM ([5]; pH 7.4): 7.2 h; IC50 (CRBN-DDB1 complex; column statistics, read-out: CRBN/DDB1 FP pIC50, mean of 3 values (unrounded) (converted)): 0.847 µM
O=C1CCC(N2C(=O)c3cccc(OCCOCCOCCN4CCN(Cc5ccc6cc(C(=O)Nc7cc(NC(=O)c8cccc9c8OCCO9)ccc7Cl)ccc6n5)CC4)c3C2=O)C(=O)N1 (centres unmarked) [PDP 21, N-(2-Chloro-5-(2,3-dihydrobenzo[b][1,4]dioxine-5-carboxamido)phenyl)-2-((4-(2-(2-(2-((2-(2,6-dioxopiperidin-3-yl)-1,3-dioxoisoindolin-4-yl)oxy)ethoxy)ethoxy)ethyl)piperazin-1-yl)methyl)quinoline-6-carboxamide] | 2 µM (≈ 1.89 µg/mL) | 2.9 | < 5.89 |  |  | < 5.90 |  | 6.56 | 6.23 | 6.35 | 7.01 | 6.38 | Pirin depletion by negative control ([2]; SK-OV-3 cells, 24 h treatment, Western blot, Figure S19): does not deplete pirin protein; also recorded: no pirin depletion; half-life at 100 µM ([5]; pH 7.4, Half-life (aqueous stability), 37 °C, pH 7.4 phosphate buffer): 2.8 h
CCN1CCN(Cc2ccc3cc(C(=O)Nc4cc(NC(=O)c5ccc6c(c5)OCCO6)ccc4Cl)ccc3n2)CC1 [chlorobisamide 22, N-(2-Chloro-5-(2,3-dihydrobenzo[b][1,4]dioxine-6-carboxamido)phenyl)-2-((4-ethylpiperazin-1-yl)methyl)quinoline-6-carboxamide] |  |  |  | 7.70 | 7.68 | 7.68 | 0.29 |  |  |  |  |  | Concentration giving complete rescue of pirin expression (pirin [6]; [15]): 1 µM; Rescue of pirin expression following treatment with PDP 16 (pirin [6]; [15]): concentration-dependent rescue of pirin expression; Competition of PDP 16 at 6 h exposure (pirin [6]; concentration > 1 μM, data not shown): unsuccessful
CC(C)C[C@@H](C=O)NC(=O)[C@H](CC(C)C)NC(=O)[C@H](CC(C)C)NC(=O)OCc1ccccc1 [MG132] (Cbz-Leu-Leu-Leu-aldehyde) |  |  |  |  |  |  |  |  |  |  |  |  | Rescue of pirin degradation by MG132 preincubation (proteasome): rescue
Cc1ccc(NC(=O)c2ccc3c(c2)OCCO3)cc1NC(=O)c1ccc2nc(OCCN3CCCC3)ccc2c1 [chemical probe 1] |  |  |  |  |  |  |  |  |  |  |  |  | Stability in pH 7.4 phosphate buffer ([5]; 37 °C, pH 7.4 phosphate buffer): no instability
